Consider 1 molecule from publication PMC8467814, “RSK1 vs. RSK2 Inhibitory Activity of the Marine β-Carboline Alkaloid Manzamine A: A Biochemical, Cervical Cancer Protein Expression, and Computational Study” (Marine Drugs, 2021).

Experiment [1] concerns the target T1, RSK2 (90 kDa ribosomal protein S6 kinase 2) (Homo sapiens, UniProt P51812).
T1 construct: gene RPS6KA3
Put plainly: radiometric […]-ATP kinase assay with KKLNRTLSVA peptide, P81 filter. Type of experiment: biochemical.

In experiment [2] the target is T2, RSK1 (90 kDa ribosomal protein S6 kinase 1; MAPKAP-K1α) (Rattus norvegicus, UniProt Q63531).
T2 construct: gene Rps6ka1
Nature of the experiment: radiometric […]-ATP kinase assay with KKLNRTLSVA peptide, P81 filter; also […] inhibition at […] in kinase panel. Type of experiment: biochemical.

T1 sequence (P51812 whole entry): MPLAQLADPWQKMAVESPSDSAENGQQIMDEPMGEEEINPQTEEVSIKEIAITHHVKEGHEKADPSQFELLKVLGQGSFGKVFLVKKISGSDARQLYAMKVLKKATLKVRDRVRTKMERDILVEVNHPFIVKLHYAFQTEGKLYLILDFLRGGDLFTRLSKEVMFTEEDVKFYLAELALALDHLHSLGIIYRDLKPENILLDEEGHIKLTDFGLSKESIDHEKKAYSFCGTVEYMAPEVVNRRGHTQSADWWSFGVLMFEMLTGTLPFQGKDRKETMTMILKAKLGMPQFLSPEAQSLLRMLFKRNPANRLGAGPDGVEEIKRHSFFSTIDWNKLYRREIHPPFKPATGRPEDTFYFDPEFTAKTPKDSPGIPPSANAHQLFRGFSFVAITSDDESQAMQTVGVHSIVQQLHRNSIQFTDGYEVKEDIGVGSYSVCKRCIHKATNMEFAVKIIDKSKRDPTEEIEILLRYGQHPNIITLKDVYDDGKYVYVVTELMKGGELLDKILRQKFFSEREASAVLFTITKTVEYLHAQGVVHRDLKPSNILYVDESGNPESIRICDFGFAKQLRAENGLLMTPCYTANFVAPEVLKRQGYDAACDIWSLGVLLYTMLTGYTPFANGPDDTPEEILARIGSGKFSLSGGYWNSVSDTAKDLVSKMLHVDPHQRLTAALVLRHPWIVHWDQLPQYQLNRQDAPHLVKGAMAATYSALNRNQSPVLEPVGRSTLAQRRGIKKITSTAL
T2 sequence (Q63531 whole entry): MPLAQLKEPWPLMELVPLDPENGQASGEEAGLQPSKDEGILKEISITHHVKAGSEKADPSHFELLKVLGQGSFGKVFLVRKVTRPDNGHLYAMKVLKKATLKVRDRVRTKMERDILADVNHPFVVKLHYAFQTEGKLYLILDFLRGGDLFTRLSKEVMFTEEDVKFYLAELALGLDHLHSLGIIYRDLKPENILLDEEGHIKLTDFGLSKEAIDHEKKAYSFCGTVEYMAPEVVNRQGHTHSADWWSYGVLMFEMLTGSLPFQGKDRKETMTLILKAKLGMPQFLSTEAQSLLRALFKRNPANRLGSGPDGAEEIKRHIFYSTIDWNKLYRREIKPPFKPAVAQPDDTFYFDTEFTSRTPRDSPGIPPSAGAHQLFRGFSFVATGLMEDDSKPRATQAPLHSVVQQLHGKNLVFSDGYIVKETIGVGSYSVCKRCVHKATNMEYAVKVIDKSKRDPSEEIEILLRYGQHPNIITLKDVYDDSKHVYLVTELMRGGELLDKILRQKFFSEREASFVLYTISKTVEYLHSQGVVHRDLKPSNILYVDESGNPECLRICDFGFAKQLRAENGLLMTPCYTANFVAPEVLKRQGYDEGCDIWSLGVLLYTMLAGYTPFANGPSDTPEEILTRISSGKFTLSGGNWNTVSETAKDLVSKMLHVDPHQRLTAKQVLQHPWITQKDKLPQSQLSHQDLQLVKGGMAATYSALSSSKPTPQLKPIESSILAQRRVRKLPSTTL

In the case of `O[C@]12C=C(c3nccc4c3[nH]c3ccccc34)[C@@H]3CCN(CCCC/C=C\CC1)C[C@@]31C[C@@H]3/C=C\CCCCN3[C@H]12` [MZA, Manzamine A], the values for the IC50 in experiment [1] and in experiment [2] were 108 µM and 15 µM, respectively.

By IC50 is commonly meant the concentration that gives 50% inhibition. The low end stands for greater potency in that assay, the high end for weaker potency in that assay.
